The values below are quoted from earlier work in paper PMC11665553, “12-Lipoxygenase inhibition delays onset of autoimmune diabetes in human gene replacement mice” (JCI Insight, 2024).

Molecules are shown by their SMILES.

The subject of data set [1] is NOD mice. Also noted: method as in PMID 28842399. The conditions noted are these: cited from earlier work.
Details of data set [2]: method as in PMID 28842399. The conditions noted are these: cited from earlier work.

For `CNc1oc(-c2cccc3ccccc23)nc1C#N` [ML351], the “Effect in NOD mice” value in data set [1] is “reductions in insulitis and improvements in glucose homeostasis”.

Take `CC(=O)NC(c1cccs1)c1cc(Br)c2cccnc2c1O` (centres unmarked) [ML127]: in data set [2], the Off-target cytotoxicity result was “evidence of off-target cytotoxicity”.
